What is called IC50 is the midpoint of a concentration-inhibition curve.

The experiment concerns the target T1, androgen receptor (AR) (Homo sapiens, UniProt P10275, T878A).
T1 construct: endogenous in cells; host or cells: LNCaP
T1 sequence (P10275 1-920 T878A): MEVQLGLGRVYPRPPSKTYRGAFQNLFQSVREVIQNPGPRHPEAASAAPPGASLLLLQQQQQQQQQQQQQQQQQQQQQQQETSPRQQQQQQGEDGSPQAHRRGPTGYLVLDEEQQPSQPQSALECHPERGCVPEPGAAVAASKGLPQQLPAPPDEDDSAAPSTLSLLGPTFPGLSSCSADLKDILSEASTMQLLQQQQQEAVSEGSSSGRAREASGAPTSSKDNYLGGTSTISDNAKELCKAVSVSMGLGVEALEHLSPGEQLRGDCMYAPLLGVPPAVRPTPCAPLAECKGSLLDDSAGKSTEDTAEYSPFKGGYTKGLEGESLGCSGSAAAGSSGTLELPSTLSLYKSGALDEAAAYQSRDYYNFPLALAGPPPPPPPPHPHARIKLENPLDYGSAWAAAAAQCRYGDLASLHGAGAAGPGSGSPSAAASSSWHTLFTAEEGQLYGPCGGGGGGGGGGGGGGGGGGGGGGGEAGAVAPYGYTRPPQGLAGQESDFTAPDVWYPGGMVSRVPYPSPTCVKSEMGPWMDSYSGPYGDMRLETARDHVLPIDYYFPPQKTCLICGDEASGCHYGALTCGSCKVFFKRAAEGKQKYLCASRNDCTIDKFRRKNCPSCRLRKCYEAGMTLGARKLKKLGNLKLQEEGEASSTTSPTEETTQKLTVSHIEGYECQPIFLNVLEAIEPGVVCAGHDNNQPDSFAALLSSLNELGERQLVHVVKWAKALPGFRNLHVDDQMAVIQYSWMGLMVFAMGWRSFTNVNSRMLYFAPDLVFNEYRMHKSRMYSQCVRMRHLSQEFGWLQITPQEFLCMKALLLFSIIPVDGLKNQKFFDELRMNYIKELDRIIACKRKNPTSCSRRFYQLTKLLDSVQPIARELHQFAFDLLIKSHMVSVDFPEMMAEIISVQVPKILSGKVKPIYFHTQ
Nature of the experiment: Androgen-induced PSA-luciferase assay, Luciferase Assay A (LNCaP transiently transfected with PSA (6.1 kb)-luciferase reporter). Type of experiment: cell-based. The settings on record: LNCaP cells, 1 h pretreatment, R1881 (1 nM) 24 h, read-out: PSA-Luc IC50 Range. As to the method:
The PSA (6.1 kb)-luciferase reporter contains functional AREs (androgen response elements) to which AR binds in response to androgen to induce luciferase activity. LNCaP cells were transiently transfected with the PSA (6.1 kb)-luciferase reporter for 24 h, and then pretreated with vehicle (DMSO) or indicated concentration of representative compounds for one hour prior to the addition of synthetic androgen, R1881 (1 nM). After 24 h of incubation with R1881, the cells were harvested, and relative luciferase activities were determined (FIG. 1). To determine the IC50, treatments were normalized to vehicle control activity induced by R1881 (Table 2).
Luciferase Assay A: Cells were lysed using Passive Lysis Buffer (Promega) and then collected into V-bottom 96-well tissue culture plates. Lysates were centrifuged at 4° C. for 5 minutes at 3000 rpm. To measure luminescence of LNCaP cell lysates the Firefly Luciferase Assay System (Promega) was employed, according to manufacturer's protocol. Relative luminescence units (RLU) in cell lysates were detected for 10 seconds using Promega GloMax-Multi Detection Luminometer (Promega). Values were normalized to protein content. GraphPad Prism graphing software was used to calculate IC50 values. Luciferase Assay A was run for all compounds in Table 2 unless otherwise noted below.
Statistical analyses were performed using GraphPad Prism (Version 6.01 for Windows; La Jolla, CA, USA). Comparisons between treatment and control groups were compared using Two-Way ANOVA with post-hoc Dunnett's and Tukey's tests. Differences were considered statistically significant at P values less than 0.05.
(Reporter assays use an easily measured gene product as a stand-in for the process of interest.)
For `CC(C)(c1ccc(N2CCOC(CCNS(C)(=O)=O)C2)cc1)c1cc(Cl)c(OCCCl)c(C#N)c1` (stereo not drawn) [Compound A31], the 50% inhibitory concentration (IC50) is greater than 2000 nM.

With `CC(C)(c1ccc(OCc2ccnc(NS(C)(=O)=O)n2)cc1)c1cc(Cl)c(N2CCCC(F)(F)C2)c(C#N)c1` [Compound A152], the IC50 is 500 to 2000 nM.

In the case of `CC(C)(c1ccc(OCc2ccnc(NS(C)(=O)=O)n2)cc1)c1cc(Cl)c(OCCN2CCNCC2)c(C#N)c1` [Compound A184], the half-inhibitory concentration (IC50) is greater than 2000 nM.

In the case of `CS(=O)(=O)NC1CCN(CCc2ccc(Oc3cc(Cl)c(OCCCl)c(C#N)c3)cc2)CC1` [Compound A30], the half-inhibitory concentration (IC50) was greater than 2000 nM.

Regarding `CS(=O)(=O)Nc1nc2ccc(-c3ccc(Oc4cc(Cl)c(OCCCl)c(C#N)c4)cc3)cc2o1` [Compound A61], the 50% inhibitory concentration (IC50) was in the range of 500 to 2000 nM.

As for `CC(C)(c1ccc(OCc2ccnc(NS(C)(=O)=O)n2)cc1)c1cc(Cl)c(OC2COC2)c(C#N)c1` [Compound A56], the half-maximal inhibitory concentration (IC50) is greater than 2000 nM.

Consider `CC(C)(c1ccc(OCc2ccc(F)c(NS(C)(=O)=O)c2)cc1)c1cc(Cl)c(OCCCl)c(C#N)c1` [Compound A131], for which the IC50 lay in the range of 500 to 2000 nM.

`CC(C)(c1ccc(-c2cnc3cc(NS(C)(=O)=O)ccc3n2)cc1)c1cc(Cl)c(OCCCl)c(C#N)c1` [Compound A124]: the IC50 was in the range of 500 to 2000 nM.

As for `CC(C)(c1ccc(OCc2ccnc(-n3cnc(S(N)(=O)=O)c3)n2)cc1)c1cc(Cl)c(OCCCl)c(C#N)c1` [Compound A106], the IC50 is 500 to 2000 nM.

As for `CC(C)(c1ccc(OC[C@]2(F)C[C@@H](NS(C)(=O)=O)C2)cc1)c1cc(Cl)c(OCCCl)c(C#N)c1` [Compound A39], the IC50 fell in the range of 500 to 2000 nM.

With `CS(=O)(=O)N1CCc2cc(-c3ccc(Oc4cc(Cl)c(OCCCl)c(C#N)c4)cc3)ccc2C1` [Compound A120], the IC50 was greater than 2000 nM.

In the case of `CC(C)(c1ccc(-c2ncc(CNS(C)(=O)=O)cn2)cc1)c1cc(Cl)c(OCCCl)c(C#N)c1` [Compound A5], the concentration for half-maximal inhibition (IC50) lay within 500 to 2000 nM.

As to `CN(c1ccc(OCc2ccnc(NS(C)(=O)=O)n2)cc1)c1cc(Cl)c(OCCCl)c(C#N)c1` [Compound A162], the IC50 fell in the range of 500 to 2000 nM.

For `CS(=O)(=O)Nc1cnc2cc(-c3ccc(Oc4cc(Cl)c(OCCCl)c(C#N)c4)cn3)ccc2n1` [Compound A23], the IC50 is greater than 2000 nM.

For the compound `CC(C)(c1ccc(-c2cnc(NC3CCN(S(C)(=O)=O)CC3)nc2)cc1)c1cc(Cl)c(OCCCl)c(C#N)c1` [Compound A151], the concentration for half-maximal inhibition (IC50) is greater than 2000 nM.

`CS(=O)(=O)Nc1cnc2cc(N3CCC(Oc4cc(Cl)c(OCCCl)c(C#N)c4)CC3)ccc2n1` [Compound A88]: the half-maximal inhibitory concentration (IC50) is greater than 2000 nM.

As to `CC(C)(c1ccc(CN2CCC(NS(C)(=O)=O)C(F)(F)C2)cc1)c1cc(Cl)c(OCCCl)c(C#N)c1` (stereo not drawn) [Compound A34], the half-inhibitory concentration (IC50) is greater than 2000 nM.

As to `CC(C)(c1ccc(OCc2ccnc(NS(C)(=O)=O)n2)cc1)c1cc(Cl)c(OCc2cnccn2)c(C#N)c1` [Compound A181], the IC50 is greater than 2000 nM.

For the compound `CC(C)(c1ccc(OCc2ccnc(NS(=O)(=O)c3cccs3)n2)cc1)c1cc(Cl)c(OCCCl)c(C#N)c1` [Compound A100], the concentration for half-maximal inhibition (IC50) lay within 500 to 2000 nM.

With `CC(C)(c1ccc(OCc2ccnc(NS(C)(=O)=O)n2)cc1)c1cc(Cl)c(OC(F)F)c(C#N)c1` [Compound A42], the 50% inhibitory concentration (IC50) was in the range of 500 to 2000 nM.

As to `CC(C)(c1ccc(OC[C@H]2C[C@@H](CNS(C)(=O)=O)C2)cc1)c1cc(Cl)c(OCCCl)c(C#N)c1` [Compound A74], the half-inhibitory concentration (IC50) was 500 to 2000 nM.

In the case of `CC(C)(c1ccc(OCc2ccnc(NS(C)(=O)=O)n2)cc1)c1cc(Cl)c(N2CC3CC2CO3)c(C#N)c1` (stereo not drawn) [Compound A149], the concentration for half-maximal inhibition (IC50) was in the range of 500 to 2000 nM.

Consider `CC(C)(c1ccc(-c2cnc(NC3CN(S(C)(=O)=O)C3)nc2)cc1)c1cc(Cl)c(OCCCl)c(C#N)c1` [Compound A76], for which the half-maximal inhibitory concentration (IC50) was 500 to 2000 nM.

With `CC(C)(c1ccc(OC[C@]2(C)C[C@H](NS(C)(=O)=O)C2)cc1)c1cc(Cl)c(OCCCl)c(C#N)c1` [Compound A51], the IC50 is greater than 2000 nM.

On to `CC(C)(c1ccc(OCc2ccnc(NS(C)(=O)=O)n2)cc1)c1cc(Cl)c(CN2CCCC(F)(F)C2)c(Cl)c1` [Compound A160], for which the 50% inhibitory concentration (IC50) is greater than 2000 nM.

With `CS(=O)(=O)NC1CN(c2ccc(-c3ccc(Oc4cc(Cl)c(OCCCl)c(C#N)c4)cc3)cn2)C1` [Compound A38], the IC50 fell in the range of 500 to 2000 nM.

On to `CN(c1nccc(Oc2ccc(C(C)(C)c3cc(Cl)c(OCCCl)c(C#N)c3)cc2)n1)S(C)(=O)=O` [Compound A135], for which the half-inhibitory concentration (IC50) lay within 500 to 2000 nM.

As for `CS(=O)(=O)Nc1cnc2cc(-c3ncc(Oc4cc(Cl)c(OCCCl)c(C#N)c4)cn3)ccc2n1` [Compound A123], the IC50 was greater than 2000 nM.

With `CC(C)(c1cc(Cl)c(OCCCl)c(C#N)c1)c1ccc(OCc2ccnc(NS(C)(=O)=O)n2)c(CO)c1` [Compound A119], the half-inhibitory concentration (IC50) is greater than 2000 nM.

`CC(C)(c1ccc(OCc2ccnc(NS(C)(=O)=O)n2)cc1)c1cc(Cl)c(CCN2CC(O)C2)c(C#N)c1` [Compound A169]: the IC50 was greater than 2000 nM.

Take `CS(=O)(=O)Nc1nccc(COc2ccc(Cc3cc(Cl)c(OCCCl)c(C#N)c3)cc2)n1` [Compound A185]: the IC50 is greater than 2000 nM.

For the compound `CC(C)(c1ccc(-c2ccc(CNS(C)(=O)=O)cn2)cc1)c1cc(Cl)c(OCCCl)c(C#N)c1` [Compound A3], the IC50 lay in the range of 500 to 2000 nM.

Take `CC(C)(C)OC(=O)N1CCN(c2cc(COc3ccc(C(C)(C)c4cc(Cl)c(OCCCl)c(C#N)c4)cc3)nc(NS(C)(=O)=O)n2)CC1` [Compound A117]: the 50% inhibitory concentration (IC50) is greater than 2000 nM.

Regarding `CC(C)(c1ccc(OC[C@H]2CC[C@H](NS(C)(=O)=O)CC2)cc1)c1cc(Cl)c(OCCCl)c(C#N)c1` [Compound A63], the IC50 fell in the range of 500 to 2000 nM.

`CS(=O)(=O)Nc1nccc2cc(-c3ccc(Oc4cc(Cl)c(OCCCl)c(C#N)c4)cc3)ccc12` [Compound A65]: the 50% inhibitory concentration (IC50) was greater than 2000 nM.

As for `CC(C)(c1ccc(-c2ccc(N3CCN(S(C)(=O)=O)CC3)nc2)cc1)c1cc(Cl)c(OCCCl)c(C#N)c1` [Compound A60], the IC50 was 500 to 2000 nM.

As to `CS(=O)(=O)Nc1nccc2nc(-c3ccc(Oc4cc(Cl)c(OCCCl)c(C#N)c4)cc3)ccc12` [Compound A66], the IC50 was greater than 2000 nM.

As to `CC(C)(C)OC(=O)N1CCC(c2cc(COc3ccc(C(C)(C)c4cc(Cl)c(OCCCl)c(C#N)c4)cc3)nc(NS(C)(=O)=O)n2)CC1` [Compound A115], the IC50 lay within 500 to 2000 nM.

For the compound `C=COc1c(Cl)cc(C(C)(C)c2ccc(COc3ccnc(NS(C)(=O)=O)n3)cc2)cc1C#N` [Compound A102], the concentration for half-maximal inhibition (IC50) was greater than 2000 nM.

Turning to `CC(C)(c1ccc(-c2cnc(N3CC(CNS(C)(=O)=O)C3)nc2)cc1)c1cc(Cl)c(OCCCl)c(C#N)c1` [Compound A95], the concentration for half-maximal inhibition (IC50) lay within 500 to 2000 nM.

As for `CS(=O)(=O)NC1CN(c2ncc(-c3ccc(N(CC(F)(F)F)c4cc(Cl)c(OCCCl)c(C#N)c4)cc3)cn2)C1` [Compound A68], the half-maximal inhibitory concentration (IC50) is less than 500 nM.

On to `CC(C)(c1ccc(OCc2ccnc(NS(=O)(=O)c3ccsc3)n2)cc1)c1cc(Cl)c(OCCCl)c(C#N)c1` [Compound A101], for which the IC50 lay within 500 to 2000 nM.

In the case of `CC(C)(c1ccc(OC2CC3(C2)CN(S(C)(=O)=O)C3)cc1)c1cc(Cl)c(N2CCOCC2)c(C#N)c1` [Compound A140], the IC50 lay within 500 to 2000 nM.

Regarding `CC(C)(c1ccc(OCc2ccc(F)c(NS(C)(=O)=O)n2)cc1)c1cc(Cl)c(OCCCl)c(C#N)c1` [Compound A125], the 50% inhibitory concentration (IC50) lay within 500 to 2000 nM.

Take `CC(C)(c1ccc(-c2cnc(CNS(C)(=O)=O)cn2)cc1)c1cc(Cl)c(OCCCl)c(C#N)c1` [Compound A2]: the half-inhibitory concentration (IC50) was in the range of 500 to 2000 nM.
